The values below come from the METLIN SMRT retention time set (Domingo-Almenara et al. 2019).

The nature of this data set: gradient 5% acetonitrile 3 min, to 50% in 2 min, to 85% in 15 min, held 3 min, 100 µL/min. The conditions noted are these: column: Zorbax Extend-C18 2.1 x 50 mm; eluents: water / acetonitrile, 0.1% formic acid. Summed up:
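Retention times come from adduct peaks that were picked computationally and then checked by hand. The standards, pure and pooled in mixtures of ~100 molecules, were run on a Zorbax Extend-C18 column (2.1 × 50 mm, 1.8 μm) at 100 μL/min with water and acetonitrile, each with 0.1% formic acid. Detection was by quadrupole time-of-flight mass spectrometry in positive and negative ionization mode, with a dead volume of 40 μL and a dwell volume of 900 μL.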
Consider `O=C(Nc1ccc(Cl)c(C(F)(F)F)c1)C1CCN(C(=O)C2Sc3ccccc3NC2=O)CC1` (stereo not given), for which the RP-LC retention time is 948 s.

Compound `CC1(C)CC(NC(=O)COc2ccc(Cl)cc2)CC(C)(C)N1` returned an RP-LC retention time of 623 s.

`CCc1cccc(NC(=O)N2[C@H]3CC[C@@H]2c2cncnc2C3)c1` returned an RP-LC retention time of 741 s.

The compound `COc1ccc(N2C(=O)CC(N3CCC(C(N)=O)CC3)C2=O)c(OC)c1` (stereo not given) displayed an RP-LC retention time of 578 s.

Take `CCCN1C(=O)c2c(C(=O)NCc3ccccc3)ncn2CC1(C)C(=O)NCCC(C)C` (stereo not given): the RP-LC retention time is 817 s.

Regarding `COc1ccccc1NC(=O)N1CCc2nc(-c3ccccc3)ncc2C1`, the RP-LC retention time is 922 s.

The compound `Cc1ccc(S(=O)(=O)c2cnc(N3CCN(c4cc(Cl)ccc4C)CC3)nc2N)cc1` returned an RP-LC retention time of 1320 s.

For the compound `CN1C2CC(OC(=O)[C@H](CO)c3ccccc3)CC1C1OC12` (stereo not given in full), the RP-LC retention time amounted to 581 s.

In turn, `O=C(NCCCN1CCOCC1)c1cc(-c2ccccn2)nc2ccccc12` yielded an RP-LC retention time of 592 s.

`CCOC(=O)c1c(C)n(C)c2ccc(O)cc12` displayed an RP-LC retention time of 803 s.

On to `COCC(C)(O)CNC(=O)c1cc(Cl)ccc1Cl` (stereo not given), for which the RP-LC retention time came to 657 s.

Regarding `Cc1ccc2c(Nc3ccc(C#N)cc3)c(C(=O)N3CCCC3)cnc2n1`, the RP-LC retention time was 576 s.

In turn, `CCn1c(=O)c2ccn(CC(=O)N3CCCc4ccccc43)c2n(CC)c1=O` showed an RP-LC retention time of 776 s.

For the compound `CN(C)C1(CC2CC2)CCN(C(=O)C2CC2)CC1`, the RP-LC retention time amounted to 558 s.

Compound `CN(C)C[C@@H]1CN(S(C)(=O)=O)C[C@H]1NC(=O)CC1=CCCCC1` gave an RP-LC retention time of 602 s.

Compound `CCOc1ccccc1-c1nc(-c2ccc3oc(CC)nc3c2)no1` displayed an RP-LC retention time of 1210 s.

For the compound `Cc1nc2cc(-c3noc(-c4ccccn4)n3)ccc2n(C2CCCC2)c1=O`, the RP-LC retention time is 991 s.

As for `COc1cc(-c2noc(Cc3nnc(-c4ccc(C)c(F)c4)o3)n2)cc(OC)c1OC`, the RP-LC retention time is 996 s.

For the compound `Cc1cccc(N2CCN(S(=O)(=O)c3cc4c(s3)CCN(C(=O)C3CC3)C4)CC2)c1`, the RP-LC retention time was determined as 1040 s.

`Cn1cc(-c2nnc(SCC(=O)N3CCc4ccccc43)n2C)c(-c2ccccc2)n1` had an RP-LC retention time of 766 s.

The compound `Cc1cccc(-c2noc(C3CCCN3C(=O)Nc3ccccc3)n2)c1` (stereo not given) displayed an RP-LC retention time of 980 s.

In the case of `Cc1ccc(N2CCC(NC(=O)Nc3cccc(Br)c3)C2=O)cc1` (stereo not given), the RP-LC retention time was 955 s.

With `CC1Oc2ccc(S(=O)(=O)N3CCC(C(=O)NCc4ccc5c(c4)OCO5)CC3)cc2NC1=O` (stereo not given), the RP-LC retention time was 755 s.

As to `CC(C)N1CCN(Cc2nc(-c3ccc(N4CCSCC4)nc3)no2)CC1`, the RP-LC retention time is 614 s.

Consider `O=C(NCc1ccc(Br)cc1)C(=O)c1c[nH]c2ccccc12`, for which the RP-LC retention time is 995 s.

`O=C(NC1CC1)[C@@H]1C[C@H](Oc2ccccc2)CN1C(=O)C1CC1` gave an RP-LC retention time of 684 s.

As for `O=C(COc1ccc(Cl)cc1)Nc1ccc(-c2nc(-c3ccc(F)cc3)no2)cc1`, the RP-LC retention time came to 1260 s.

`CCOC(=O)c1c(S(=O)(=O)N2CCC(C(=O)N3CCOCC3)CC2)c(C)n(C)c1C`: the RP-LC retention time was determined as 674 s.

`Cc1ccc(S(=O)(=O)N2CCCC(c3nc(-c4cccc(-c5ccnn5C)c4)no3)C2)cc1` (stereo not given) showed an RP-LC retention time of 1140 s.

In the case of `Cc1ccc(N2CCN(c3nccn4nc(-c5ccc(Cl)cc5)cc34)CC2)cc1`, the RP-LC retention time was determined as 1400 s.

`CCOc1ccccc1N1CCN(S(=O)(=O)c2nn(CC)cc2C(=O)NCCC(C)C)CC1`: the RP-LC retention time came out at 1130 s.

Consider `CSc1cnc(Nc2nc(-c3ccc(Br)cc3)cs2)nc1`, for which the RP-LC retention time was 1190 s.

`Cc1ccc(Nc2ncnc3nc[nH]c23)cc1Cl` returned an RP-LC retention time of 682 s.

Compound `O=C(O)c1cccc(Nc2c(-c3ccc(Cl)cc3)nc3cnccn23)c1` yielded an RP-LC retention time of 757 s.

Compound `Cc1noc(C2(NC(=O)C3COc4ccccc4O3)CCCCC2)n1` (stereo not given) returned an RP-LC retention time of 920 s.

Turning to `COc1ccc(-c2nc3ccccn3c2Nc2ccc3c(c2)OCO3)cc1`, the RP-LC retention time was determined as 633 s.

With `CCOc1ccc(C2Cn3nnc(-c4nc(-c5ccc(F)c(F)c5)no4)c3CO2)cc1` (stereo not given), the RP-LC retention time worked out at 1250 s.

`Cc1cc(C(=O)NCc2ccc(C)o2)c2c(C)nn(-c3ccccc3)c2n1` returned an RP-LC retention time of 964 s.

`CCN(CCNS(=O)(=O)c1ccc2[nH]c(=O)ccc2c1)Cc1ccccc1`: the RP-LC retention time worked out at 597 s.

`CCNC(=O)c1cnn(-c2cc(-c3nc(C(C)C)no3)ccn2)c1C` displayed an RP-LC retention time of 858 s.

In turn, `CS(=O)(=O)N1CCC(C(=O)NC2CCCC(OC(=O)Nc3ccc(F)cc3)C2)CC1` (stereo not given) gave an RP-LC retention time of 704 s.

As for `Cc1noc(/C=C/c2ccc(S(=O)(=O)N3CCOCC3)s2)c1NC(=O)C1CC1`, the RP-LC retention time came out at 778 s.

The compound `COc1ccc(-n2c(=O)n(C)c(=O)c3cc(C(=O)Nc4cccc(OC)c4)cnc32)cc1` displayed an RP-LC retention time of 1020 s.

`O=C(NCc1ccccc1Cl)c1c(O)c2cccc3c2n(c1=O)CC3` registered an RP-LC retention time of 1180 s.

On to `N#CC1(C(=O)NCCc2ccc(Cl)cc2)CC1`, for which the RP-LC retention time is 873 s.

Take `COc1ccc(Cl)cc1C(=O)Nc1cnc(N2CCCCC2)nc1`: the RP-LC retention time came out at 1070 s.

As for `COCCNC(=O)CC1CCN(C(=O)c2[nH]c(C)c(C(=O)OC)c2C)CC1`, the RP-LC retention time amounted to 614 s.

In turn, `CN1C(=O)c2cc(C(=O)Nc3ccc(Cl)cc3)nn2CC1(C)C(=O)NC1CCCCC1` (stereo not given) came in with an RP-LC retention time of 898 s.

Compound `CCOc1cccc2c1OC1(C)CC2NC(=O)N1c1cccc(C(=O)NCc2cccs2)c1` (stereo not given) showed an RP-LC retention time of 790 s.

In turn, `CCOc1cc(C(=O)Nc2c(-c3ccccc3)nc3ccccn23)cc(OCC)c1OCC` came in with an RP-LC retention time of 759 s.

In turn, `Cc1noc(-c2cc(=O)n(CC(=O)NCc3ccccc3F)c3ccccc23)n1` gave an RP-LC retention time of 826 s.

On to `CCCN(Cc1ccc(OC)cc1)Cc1cc(=O)n2ccc(C)cc2n1`, for which the RP-LC retention time worked out at 628 s.

As for `CCn1c(CCNC(=O)c2cccc(N(C)C)c2)nc2cccnc21`, the RP-LC retention time was 586 s.

Regarding `COCCNC(=O)CSc1nc(-c2ccc(F)cc2)[nH]c1-c1ccccc1`, the RP-LC retention time came to 624 s.

Regarding `COCc1nncn1C1CCN(S(=O)(=O)c2cccc(OC)c2)CC1`, the RP-LC retention time was found to be 751 s.

In turn, `COc1ccccc1-c1cc(C(=O)N2CCN(c3ccc(=O)n(-c4ccc(F)cc4)n3)CC2)[nH]n1` showed an RP-LC retention time of 789 s.

For the compound `O=C1NC(=S)S/C1=C\c1ccccc1C(=O)O`, the RP-LC retention time amounted to 835 s.

For the compound `Cc1ccc(S(=O)(=O)N2CCCC(CCC(=O)N3CCCCC3)C2)cc1` (stereo not given), the RP-LC retention time is 962 s.

As to `Cc1ccc(N2CCC(NC(=O)c3ccc(C)s3)C2=O)cc1` (stereo not given), the RP-LC retention time was determined as 842 s.

With `CCCNC(=O)N1CCCCCC1CN1CCCC1` (stereo not given), the RP-LC retention time turned out to be 580 s.
